We go through 32 compounds from US8829014B2, “Thiazole and thiophene analogues, and their use in treating autoimmune diseases and cancers” (Board of Supervisors of Louisiana State University and …, priority 2006, dated 2014).

The test system of one test is carageenan-induced edema. In words: Carrageenan-induced rat paw edema test (anti-inflammatory activity). Format: in vivo, Sprague-Dawley rats. Also noted: % Protection: concentration or dose not given beside the values. As to conditions: Rattus norvegicus, po, 3 h, carrageenan-induced rat paw edema; defined in Example 397; read-out: % Protection. As for the experimental part:
Sprague-Dawley rats, male and female, 150-250 g will be used in an edema test. Rats will be deprived of food but not water for 18 hours prior to the experiment. The test compounds will be administered with a blunt-tipped needle orally, 50 mg/kg, as a suspension in 0.1% sodium CMC (carboxymethylcellulose) vehicle. Alternatively, the test compounds will be injected intravenously, subcutaneously, or intraperitoneally. One hour later, 0.1 ml of a 1% carrageenan solution in saline will be injected in the sub-plantar region of the right hind paw of each rat. […] The reading will be repeated 3 hours later. The displacement readings give a measure of carageenan-induced edema. Any reduction in carageenan-induced edema with a test compound, as compared to saline control, is a measure of the anti-inflammatory activity of the test compound. The percentage protection at 50-mg/kg doses was calculated according to the following formula: % Protection=[(Control−Test)/Control]×100%.
Following treatment, the media from the VSMC and HUVEC incubations were removed, and the amount of lactate dehydrogenase (LDH) released into the medium was determined with a commercial kit and expressed as a % increase over vehicle-treated cells. HPT toxicity was determined by the ethidium homodimer (EthHD) uptake assay. […] The lead compounds were also tested in two pairs of cell lines from the skin or prostate, one tumorigenic and one non-tumorigenic, to test for differing toxicity or heightened sensitivity in the tumorigenic lines. The cells were treated for 48 h with vehicle (0.1% DMSO) or 10 μM of each drug candidate, and the viability of the cells was determined by the MTT assay, expressed as a % decrease in viability compared to vehicle-treated cells. The in vivo inflammation model measured the % inhibition of rat paw edema induced by carageenan injection.
On the technique in general: In the carrageenan paw model, swelling and tenderness develop within hours.
Turning to `Cc1ccccc1-n1c(-c2sc(Nc3ccc(Cl)cc3)nc2C)nc2ccccc2c1=O` [Example 170, 2-[2-(4-Chlorophenylamino)-4-methyl-thiazol-5-yl]-3-o-tolyl-3H-quinazolin-4-one], the inhibition in vivo at 50 mg/kg is 45%.
With `Cc1ccccc1-n1c(-c2sc(Nc3ccc(Cl)cc3)nc2-c2ccccc2)nc2ccccc2c1=O` [Example 178, 2-[2-(4-Chloro-phenylamino)-4-phenyl-thiazol-5-yl]-3-o-tolyl-3H-quinazolin-4-one], the inhibition in vivo at 50 mg/kg was 51%.
For the compound `CCOC(=O)Nc1nc(C)c(-c2nc3ccccc3c(=O)n2-c2ccc(C)cc2)s1` [Example 190, (4-Methyl-5-(4-oxo-3-p-tolyl-3,4-dihydro-quinazolin-2-yl)-thiazol-2-yl)-carbamic acid ethyl ester], the inhibition in vivo at 50 mg/kg was found to be 24%.
The same measure, in the same setting: for `COc1ccccc1-n1c(-c2sc(Nc3ccc(Cl)cc3)nc2C)nc2ccccc2c1=O` [Example 203, 2-[2-(4-Chlorophenylamino)-4-methyl-thiazol-5-yl]-3-(2-methoxyphenyl)-3H-quinazoline-4-one] the value was 27%.
With `COc1ccccc1-n1c(-c2sc(Nc3ccc(Cl)cc3)nc2-c2ccccc2)nc2ccccc2c1=O` [Example 208, 2-[2-(4-Chloro-phenylamino)-4-phenyl-thiazol-5-yl]-3-(2-methoxyphenyl)-3H-quinazolin-4-one], the inhibition in vivo at 50 mg/kg was determined as 31%.
Consider `Cc1ccc(Nc2nc(C)c(-c3nc4ccccc4c(=O)n3-c3ccc(Cl)cc3)s2)cc1` [Example 247, 2-[2-(4-Methylphenylamino)-4-methyl-thiazol-5-yl]-3-(4-chloro-phenyl)-3H-quinazolin-4-one], for which the inhibition in vivo at 50 mg/kg stood at 71.9%.
Still for that read-out and setting: the figure for `CCOC(=O)Nc1nc(C)c(-c2nc3ccccc3c(=O)n2-c2ccc(C(C)=O)cc2)s1` [Example 259, (4-Methyl-5-(4-oxo-3-(4-acetyl-phenyl)-3,4-dihydro-quinazolin-2-yl)-thiazol-2-yl)-carbamic acid ethyl ester] is 69.7%.

Staying with this test, now noted: Rattus norvegicus, po, 3 h, rat paw edema, 50 mg/kg, reading 3 hours after carrageenan; [(Control−Test)/Control]×100%; read-out: % Protection P.
As for `O=C(c1cccnc1)c1cc(-c2cccnc2)c(N2CCOCC2)s1` [Example 98, (5-Morpholin-4-yl-4-pyridin-3-yl-thiophen-2-yl)-pyridin-3-yl-methanone], the inhibition in vivo at 50 mg/kg came to 42%.
Regarding `O=C(c1ccncc1)c1cc(-c2cccnc2)c(N2CCOCC2)s1` [Example 99, (5-Morpholin-4-yl-4-pyridin-3-yl-thiophen-2-yl)-pyridin-4-yl-methanone], the inhibition in vivo at 50 mg/kg came to 26%.
On to `O=C(c1ccccc1)c1cc(-c2ccncc2)c(N2CCOCC2)s1` [Example 102, (5-Morpholin-4-yl-4-pyridin-4-yl-thiophene-2-yl)-phenyl-methanone], for which the inhibition in vivo at 50 mg/kg came to 52%.
Consider `COc1ccc(C(=O)c2cc(-c3ccncc3)c(N3CCOCC3)s2)cc1` [Example 104, (4-Methoxy-phenyl)-(5-morpholin-4-yl-4-pyridin-4-yl-thiophen-2-yl)-methanone], for which the inhibition in vivo at 50 mg/kg turned out to be 43.5%.
The same measure, in the same setting: for `O=C(c1ccc(Cl)cc1)c1cc(-c2ccncc2)c(N2CCOCC2)s1` [Example 105, (4-Chloro-phenyl)-(5-morpholin-4-yl-4-pyridin-4-yl-thiophen-2-yl)-methanone] the value was 47.2%; for `O=C(c1cc(-c2ccncc2)c(N2CCOCC2)s1)c1ccc(Cl)cc1Cl` [Example 106, (2,4-Dichloro-phenyl)-(5-morpholin-4-yl-4-pyridin-4-yl-thiophen-2-yl)-methanone], -75.2%; for `CC(=O)Nc1ccc(C(=O)c2cc(-c3ccncc3)c(N3CCOCC3)s2)cc1` [Example 109, N-[4-(5-Morpholin-4-yl-4-pyridin-4-yl-thiophen-2-carbonyl)-phenyl]-acetamide], -75.2%.
Still for that read-out and setting: the figure for `O=C(c1cccnc1)c1cc(-c2ccncc2)c(N2CCOCC2)s1` [Example 110, (5-Morpholin-4-yl-4-pyridin-4-yl-thiophen-2-yl)-pyridin-3-yl-methanone] is -6.93%.
On the same count and under the same terms, for `O=C(c1ccncc1)c1cc(-c2ccncc2)c(N2CCOCC2)s1` [Example 111, (5-Morpholin-4-yl-4-pyridin-4-yl-thiophen-2-yl)-pyridin-4-yl-methanone] the value was 59.1%; for `CS(=O)(=O)c1ccc(-c2cc(C(=O)c3cc(-c4ccc(S(C)(=O)=O)cc4)c(N4CCOCC4)s3)sc2N2CCOCC2)cc1` [Example 112, Bis-[4-(4-methansulfonyl-phenyl)-5-morpholin-4-yl-thiophen-2-yl]-methanone], 55.6%; for `CC(=O)Nc1ccc(-c2cc(C(=O)c3cc(-c4ccc(NC(C)=O)cc4)c(N4CCOCC4)s3)sc2N2CCOCC2)cc1` [Example 113, N-{4-{5-[4-(4-acetylamino-phenyl)-5-morpholin-4-yl-thiophene-2-carbonyl]-2-morpholin-4-yl-thiophene-3-yl}-phenyl)-acetamide], 45.5%.
For the compound `O=C(c1cc(-c2ccc(Cl)cc2)c(N2CCOCC2)s1)c1cc(-c2ccc(Cl)cc2)c(N2CCOCC2)s1` [Example 114, Bis-[4-(4-chloro-phenyl)-5-morpholin-4-yl-thiophen-2-yl]-methanone], the inhibition in vivo at 50 mg/kg came to 56.6%.
Consider `COC(=O)Nc1nc(C)c(C(=O)c2sc(NC(=O)OC)nc2C)s1` [Example 123, Dimethyl[carbonyl-bis(4-methyl-1,3-thiazole-5,2-diyl)]biscarbamate], for which the inhibition in vivo at 50 mg/kg was 23.9%.
On the same count and under the same terms, the figure for `O=C(c1sc(Nc2ccc(Cl)cc2)nc1-c1ccccc1)c1sc(Nc2ccc(Cl)cc2)nc1-c1ccccc1` [Example 127, Bis-[2-(4-Chloro-phenylamino)-4-phenyl-thiazole-5-yl]-methanone] is 43.5%.
As to `O=C(Nc1nc(-c2ccccc2)c(C(=O)c2sc(NC(=O)c3ccco3)nc2-c2ccccc2)s1)c1ccco1` [Example 129, Bis-[2-(2-Furoyl-amino)-4-phenyl-thiazole-5-yl]-methanone], the inhibition in vivo at 50 mg/kg was found to be 55%.
As to `CCOC(=O)Nc1nc(-c2ccccc2)c(C(=O)c2sc(NC(=O)OCC)nc2-c2ccccc2)s1` [Example 131, Diethyl[carbonyl-bis(4-phenyl-1,3-thiazole-5,2-diyl)]biscarbamate], the inhibition in vivo at 50 mg/kg was found to be 69.8%.
Same read-out and setting: the figure for `Cc1ccccc1-n1c(-c2cc(-c3ccc(Cl)cc3)c(N3CCOCC3)s2)nc2ccccc2c1=O` [Example 279, 2-[4-(4-Chloro-phenyl)-5-morpholin-4-yl-thiophen-2-yl]-3-o-tolyl-3H-quinazolin-4-one] is 0%; for `Cc1ccccc1-n1c(-c2cc(-c3ccc(S(C)(=O)=O)cc3)c(N3CCOCC3)s2)nc2ccccc2c1=O` [Example 281, 2-[4-(4-Methanesulfonylphenyl)-5-morpholin-4-yl-thiophen-2-yl]-3-o-tolyl-3H-quinazolin-4-one] it is 50%.
`Cc1cccc(-n2c(-c3cc(-c4ccc(S(C)(=O)=O)cc4)c(N4CCOCC4)s3)nc3ccccc3c2=O)c1` [Example 287, 2-[4-(4-Methanesulfonyl-phenyl)-5-morpholin-4-yl-thiophen-2-yl]-3-m-tolyl-3H-quinazolin-4-one]: the inhibition in vivo at 50 mg/kg amounted to 51%.
As for `CSc1ccc(-c2cc(-c3nc4ccccc4c(=O)n3-c3cccc(C)c3)sc2N2CCOCC2)cc1` [Example 288, 2-[4-(4-Methylsulfanyl-phenyl)-5-morpholin-4-yl-thiophen-2-yl]-3-m-tolyl-3H-quinazolin-4-one], the inhibition in vivo at 50 mg/kg is 31%.
Consider `Cc1ccc(-n2c(-c3cc(-c4ccccc4)c(N4CCOCC4)s3)nc3ccccc3c2=O)cc1` [Example 290, 2-(5-Morpholin-4-yl-4-phenyl-thiophene-2-yl)-3-p-tolyl-3H-quinazolin-4-one], for which the inhibition in vivo at 50 mg/kg stood at 48%.

Staying with this test, now noted: carrageenan-induced rat paw edema; defined in Example 397.
Consider `O=c1c2ccccc2nc(-c2sc(Nc3ccc(Cl)cc3)nc2-c2ccccc2)n1-c1ccccc1Cl` [Example 238, 2-[2-(4-Chlorophenylamino)-4-phenyl-thiazol-5-yl]-3-(2-Chloro-phenyl)1-3H-quinazolin-4-one], for which the “% Protection” value turned out to be 61%.

Staying with this test, now noted: rat paw edema, 50 mg/kg, reading 3 hours after carrageenan; [(Control−Test)/Control]×100%.
For the compound `Cc1ccccc1-n1c(-c2cc(-c3ccccc3)c(N3CCOCC3)s2)nc2ccccc2c1=O` [Example 278, 2-(5-Morpholin-4-yl-4-phenyl-thiophene-2-yl)-3-0-tolyl-3H-quinazolin-4-one], the “% Protection P” value is on record as 37%.

The test is the same for the next values; noted with them: rat paw edema, 50 mg/kg, reading 3 hours after carrageenan; [(Control−Test)/Control]×100%; 50 mg/kg.
Turning to `Cc1nc(NC(=O)c2ccccc2)sc1C(=O)c1sc(NC(=O)c2ccccc2)nc1C` [Example 121, Bis-[2-(2-Benzoyl-amino)-4-methyl-thiazole-5-yl]-methanone], the “% Protection P” value is listed as 62%.
`Cc1nc(NC(=O)c2ccccc2)sc1C(=O)c1sc(NC(=O)c2ccccc2)nc1C` [Example 128, Bis-[2-(2-Benzoyl-amino)-4-methyl-thiazole-5-yl]-methanone]: the “% Protection P” value was 34%.
